System: differentiating wild-type Th2 cells
Test: Th2 cell differentiation and commitment in Th2-polarizing culture with non-specific SETDB1 inhibitors; cytokine production by intracellular staining and flow cytometry
Settings: naïve CD4 T cells, 6 days in Th2-polarizing conditions; 100 nM Mithramycine A for first 4 hours, 1 nM DZNep for first 24 hours; no pro-Th1 signal; vs DMSO; PMA/Ionomycine restimulation
Method: At the end of the culture, cytokine production was assessed by flow cytometry following T cell restimulation with PMA/Ionomycine in the presence of Monensin and intracellular staining.
Spleen and lymph nodes (mesenteric, inguinal, axillary, brachial and cervical) were collected and digested with Liberase TM and DNAse I (Sigma). Single-cell suspensions were then pooled and depleted of erythrocytes by osmotic shock (Red Blood Cell Lysis buffer, Sigma). […] Naïve CD4 T cells, defined as CD4+CD25-CD62LhighCD44low, were labeled with fluorochrome-conjugated monoclonal antibodies specific for CD4 (GK1.5, BD Biosciences), CD25 (PC61, BD Biosciences), CD62L (MEL14, Thermo Fischer Scientific) and CD44 (IM7, BD Biosciences), and purified from the enriched fraction of CD4 T cells by fluorescence-activated cell sorting (FACS Aria, BD Biosciences). […]
For intracellular cytokine staining, cells were first stimulated at 37° C. with 20 ng/mL phorbol 12-myristate 13-acetate (Millipore) and 1 μg/mL ionomycin (Millipore) for 5 hours in the presence of GolgiStop™ (BD Biosciences). […] Flow cytometry was performed by using a LSRII Fortessa cytometer (BD Biosciences) or MACSQuant analyzer 10 (Myltenyi) and the data were analyzed by using FlowJo software (Tree Star). […]

Nc1nccc2c1ncn2[C@@H]1C=C(CO)[C@@H](O)[C@H]1O [DZNEP, 3-Deazaneplanocin A]
IFN-γ production by Th2 cells (frequency of IFNg-producing cells): start to produce pro-Th1 factor, in particular IFN-γ

From patent US20220000893A1, “METHOD FOR TREATING T-HELPER TYPE 2 MEDIATED DISEASE” (|NSERM (INSTITUT NATIONAL DE LA SANTÉ ET DE LA RECHERCHE …, priority 2018, published 2022)
